How the values were obtained:
DNA = conditions: Isaacs et al., NCI Monograph 66:21 (1984); cited from earlier work
platelets [1] = assay: Platelet aggregation (ADP and collagen), aggregometer; type: cell-based, human; conditions: 100 μM compound, 5 Joules/cm^2, 5 days storage; FIG. 21B
Method: To measure the effects of the present compounds and methods of decontamination on platelet function using these four indicators, four samples were prepared for each compound tested, two control samples and two containing compound. Three units of human platelets were obtained from the Sacramento Blood Center, Sacramento, Calif. These were each transferred under sterile conditions to 50 ml centrifuge tubes, then aliquots of each unit were transferred into a second set of 50 ml sterile centrifuge tubes. To each centrifuge tube containing platelet concentrate (PC), an aliquot of compound stock was added to reach a final concentration of 100 μM of compound. […] The samples were pipetted gently up and down to mix. Then aliquots (either 3 ml or 8 ml) of each sample was transferred to two sterile Teflon™ Medi-bags™ (American Fluoroseal Co., Silver Springs, Md.) (presently owned by The West Company, Lionville, Pa.). Samples were treated in one of two different sized bags, having either 3 ml or 8 ml capacity. […] For each compound tested, two control samples without compound were prepared by again removing aliquots of platelet concentrate (17 ml if using an 8 ml bag, 4 ml if using a 3 ml bag) from the same one of the first set of 50 ml centrifuge tubes from which the compound sample was drawn, and dividing into Medibags, as before. […]

platelets [2] = assay: In vitro platelet function after photochemical treatment and 8-hour RD treatment (Tables O, P); type: cell-based, human; conditions: RD 8 hours; for pH: T: 150 μM S-59, 3 Joules/cm^2 UVA; for (%) Aggregation / (%) HSR / (%) Microvesicle Formation / (%) p-Selectin-Positive / ATP / Bicarbonate / Glucose / Lactate / Morphology (Out Of 400) / Platelet Shape Change / Platelet count / pCO2 / pO2: T: S-59, UVA
Method: Two ABO-matched single donor PCs containing 2−5×10^11 platelets in approximately 300 mL of 35% plasma and 65% PAS III were pooled and redivided into two identical units in PL 2410 Plastic containers (Baxter). One unit (the control) was immediately placed on a platelet shaker and stored at approximately 22° C. The other unit (the test) was treated with 150 μM S-59 and 3 Joules/cm^2 UVA. After treatment, the platelets suspension was transferred into a second PL 2410 Plastic container containing a RD. Contact between platelets and the RD occurred for a period of approximately 8 hours, then the platelet suspension was transferred to a new PL 2410 Plastic container for storage. The time of blood donation was defined as day 0. Treatment with S-59, UVA (320-400 nm), and the RD was performed on day 1. Six replicate experiments were carried out, each with a different pool of two ABO-matched single-donor platelet concentrates.
For the evaluation of in vitro platelet function, platelet samples were withdrawn from both the control and test units before treatment and after treatment on days 2, 5, and 7. The following parameters were analyzed: pH, pO2, pCO2, bicarbonate concentration, platelet count, morphology, aggregation, platelet shape change, hypotonic shock response, lactate production, glucose consumption, ATP secretion, p-selectin expression, and microvesicle formation. Several of these assays, including pH, morphology score, platelet shape change, and hypotonic shock response, have been reported in the literature to correlate with in- vivo post-transfusion recovery and survival. The Student's paired t-test was used for statistical analysis.
For platelet count measurement, the volume of the control unit is approximately 5% less than the volume of the paired test unit; thus, for statistical analysis the platelet count per μL for the test unit was adjusted by a factor of […]. The pH of the treated platelets was maintained at 6.91±0.05 after seven days of storage following treatment.

For `Cc1oc2c(C)c3oc(=O)cc(C)c3cc2c1CN` [AMT, 4′-Aminomethyl-4,5′,8-trimethylpsoralen, reference compound], the “DNA base pairs per AMT adduct (up to 1 adduct per)” value (DNA) is listed as 3.5 DNA base pairs.
In the case of `Cc1oc2c(C)c3oc(=O)cc(C)c3cc2c1COCCN` [Compound 2, 4′-(4-amino-2-oxa)butyl-4,5′,8-trimethylpsoralen], the “reduction in platelet aggregation from the day 1 control” value (platelets [1]) is reported as “approximately 8%”, the pH (platelets [2]; Day 2) is reported as 6.94 ± 0.05 and the pH (platelets [2]; Day 5) is reported as 6.92 ± 0.06. For the same molecule, the pH (platelets [2]; Day 7) was 6.91 ± 0.05, the “(%) Aggregation” value (platelets [2]; Day 2) was 88 ± 4% and the “(%) HSR” value (platelets [2]; Day 2) was 52 ± 5 %. For the same molecule, the “(%) Microvesicle Formation” value (platelets [2]; Day 2) was 0.9 ± 0.2%, the “(%) p-Selectin-Positive” value (platelets [2]; Day 2) was 49 ± 5 % and the ATP (platelets [2]; Day 2) was 1.0 ± 0.1 Nmoles Per 10^8 Platelets. The Bicarbonate (platelets [2]; Day 2) was 6.3 ± 0.3 mM, the Glucose (platelets [2]; Day 2) was 4.6 ± 0.9 mM and the Lactate (platelets [2]; Day 2) was 4.7 ± 1.2 mM. For the same molecule, the “Morphology (Out Of 400)” value (platelets [2]; Day 2) was 302 ± 16, the “Platelet Shape Change” value (platelets [2]; Day 2) was 1.0 ± 0.1 and the Platelet count (platelets [2]; Day 2) was 1545 ± 247 × 10^−3/μL. The pCO2 (platelets [2]; Day 2) was 29.2 ± 3.8 mm Hg, the pO2 (platelets [2]; Day 2) was 68.3 ± 19.4 mm Hg and the “(%) Aggregation” value (platelets [2]; Day 5) was 81 ± 7%. For the same molecule, the “(%) HSR” value (platelets [2]; Day 5) was 45 ± 3%, the “(%) Microvesicle Formation” value (platelets [2]; Day 5) was 0.8 ± 0.2% and the “(%) p-Selectin-Positive” value (platelets [2]; Day 5) was 58 ± 5%. For the same molecule, the ATP (platelets [2]; Day 5) was 0.7 ± 0.2 Nmoles Per 10^8 Platelets, the Bicarbonate (platelets [2]; Day 5) was 4.8 ± 0.5 mM and the Glucose (platelets [2]; Day 5) was 2.1 ± 1.1 mM. The Lactate (platelets [2]; Day 5) was 8.5 ± 1.6 mM, the “Morphology (Out Of 400)” value (platelets [2]; Day 5) was 290 ± 20 and the “Platelet Shape Change” value (platelets [2]; Day 5) was 0.9 ± 0.1. For the same molecule, the Platelet count (platelets [2]; Day 5) was 1525 ± 246 × 10^−3/μL, the pCO2 (platelets [2]; Day 5) was 23.7 ± 3.5 mm Hg and the pO2 (platelets [2]; Day 5) was 84.8 ± 22.5 mm Hg. For the same molecule, the “(%) Aggregation” value (platelets [2]; Day 7) was 81 ± 4%, the “(%) HSR” value (platelets [2]; Day 7) was 48 ± 8% and the “(%) Microvesicle Formation” value (platelets [2]; Day 7) was 1.7 ± 1.7%. For the same molecule, the “(%) p-Selectin-Positive” value (platelets [2]; Day 7) was 60 ± 7%, the ATP (platelets [2]; Day 7) was 0.6 ± 0.2 Nmoles Per 10^8 Platelets and the Bicarbonate (platelets [2]; Day 7) was 4.2 ± 0.7 mM. For the same molecule, the Glucose (platelets [2]; Day 7) was 0.8 ± 0.8 mM, the Lactate (platelets [2]; Day 7) was 10.8 ± 1.3 mM and the “Morphology (Out Of 400)” value (platelets [2]; Day 7) was 274 ± 12. The “Platelet Shape Change” value (platelets [2]; Day 7) was 0.9 ± 0.3, the Platelet count (platelets [2]; Day 7) was 1500 ± 219 × 10^−3/μL and the pCO2 (platelets [2]; Day 7) was 20.7 ± 2.4 mm Hg. The pO2 (platelets [2]; Day 7) was 88.8 ± 20.2 mm Hg.

Source: patent publication US6544727B1, “Methods and devices for the removal of psoralens from blood products” (Cerus Corporation, priority 1995, dated 2003)
